US8999320B2, “Nanoscale bound bilayers, methods of use and production” (The Rockefeller University, priority 2008, dated 2015)

Legend:
2D7 capture antibody = test: Sandwich ELISA with conformation sensitive 2D7 capture and 1D4 detection antibodies; assay type: binding; conditions: CCR5 from HEK-293 cells; 30 minutes at room temperature; sample 1 = DDM, CHAPS, DOPC/POPC
Protocol: The primary (capture) antibody was diluted to 1 μg/mL in 1×PBS pH 7.2 and 100 μL was added to each well of the microplate (Costar clear-bottom, black 96-well). The plate was stored overnight at 4° C. The plate wells were washed twice with PBS containing 0.05% Tween-20 and once with PBS and 200 μL of 10 mg/mL (1%) fatty-acid free BSA in PBS. The plate was either incubated at room temperature for 2 hours or overnight at 4° C. G-protein coupled receptor (GPCR)—NABBs were added to the respective wells in a final volume of 100 μL. GPCR-NABB was diluted in PBS containing 1 mg/mL (0.1%) BSA. The microplate was incubated at 4° C. overnight to ensure complete binding of epitope on the GPCR-NABB to the capture antibody. The analyte was then washed 3 times with 0.1% BSA-PBS using 200 μL per wash. […] The fluorescence in the wells was measured using a Cytofluor-II spectrofluorimeter with excitation at 530 nm and emission at 590 nm.
Conformational stability of the extracellular side of CCR5 after exposure to different detergents was determined by a sandwich ELISA using 2D7 and 1D4 antibodies. […] The amount of CCR5 bound to the 2D7 capture antibody was measured by detecting the binding of the second antibody-HRP-linked 1D4, and adding a fluorogenic HRP substrate in the microplate wells. […]

CCR5 = target: T1, CCR5 (Homo sapiens, UniProt P51681); test: High-throughput G-protein activation assay (BODIPY-FL-GTPγS binding) with CCR5-NABBs; assay type: biochemical; conditions: 50 nM RANTES, CCR5 in NABBs
T1 construct: made in house; host or cells: HEK-293 cells stably expressing CCR5, immunopurified on 1D4-sepharose
T1 sequence (P51681 whole entry): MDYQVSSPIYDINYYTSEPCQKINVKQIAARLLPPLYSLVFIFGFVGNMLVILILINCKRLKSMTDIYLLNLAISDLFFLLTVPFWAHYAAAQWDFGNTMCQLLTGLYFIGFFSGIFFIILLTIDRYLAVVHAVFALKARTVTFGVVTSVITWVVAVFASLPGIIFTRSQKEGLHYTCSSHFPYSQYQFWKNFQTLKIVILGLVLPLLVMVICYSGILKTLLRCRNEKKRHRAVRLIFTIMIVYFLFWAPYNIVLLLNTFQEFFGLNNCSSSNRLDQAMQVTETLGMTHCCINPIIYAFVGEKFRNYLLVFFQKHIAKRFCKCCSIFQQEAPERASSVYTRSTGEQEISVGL
Protocol: A black, C-bottom 96-well plate was used for the high-throughput G-protein activation assay. 25 μL of purified G protein or its subunits were added to the microplate wells from a […] protein stock. The added proteins were either Gi1α subunit, Gi1α with transducin βγ subunits, or holotransducin (Gt), with 25 μl of buffer G1 without GDP. […] 100 μL of CCR5-NABB solution with and without RANTES were added to the respective wells and the microplate incubated at room temperature for 15 minutes. 60 μL of BODIPY-FL-GTPγS was added from a 1 μM stock to all wells using a multi-channel pipettor. The plate was shaken for 30 seconds, covered and incubated at room temperature for 5 minutes. The fluorescence in the wells was recorded using a Cytofluor II microplate reader with excitation wavelength at 485 nm and 20 nm bandpass, emission wavelength at 530 nm and 25 nm bandpass. The gain was set to 95 and 15 reads were integrated for each well. The fluorescence values from the wells containing BODIPY-FL-GTPγS and no G protein was subtracted from the rest of the data as background. The fluorescence values from wells containing the CCR5-NABBs with no RANTES was subtracted from RANTES-containing wells to determine the RANTES-specific response.
CCR5 activation of G protein was measured by binding of a fluorescently labeled nucleotide analog BODIPY-FL-GTPγS. […]

Compound | 2D7/1D4 sandwich ELISA signal relative to sample 1 (2D7 capture antibody) [%] | enhancement of B-GTPγS binding to the G protein, compared with unstimulated CCR5-NABBs (CCR5)
CCCCCCCCCCCCO[C@@H]1O[C@H](CO)[C@@H](O[C@H]2O[C@H](CO)[C@@H](O)[C@H](O)[C@H]2O)[C@H](O)[C@H]1O [DDM, n-dodecyl-beta-D-maltopyranoside] | 65 | 
RANTES: ligand used to stimulate CCR5 in NABBs |  | up to 30%
